In ChEMBL document CHEMBL4421728, “Bach1 Inhibitors in Combination with Nrf2 Activators and Pharmaceutical Compositions Thereof” (2017):
Blank lines part the entries; values can stand above or below the compound they belong to.

Columns and labels:
[1] = target: T1, Nuclear factor erythroid 2-related factor 2 (Homo sapiens) (UniProt Q16236); experiment: Activation of Nrf2 in normal human lung fibroblasts assessed as induction of HMOX protein expression at 3 uM incubated for 16 to 18 hrs by immunostaining relative to control
T1 sequence (whole entry): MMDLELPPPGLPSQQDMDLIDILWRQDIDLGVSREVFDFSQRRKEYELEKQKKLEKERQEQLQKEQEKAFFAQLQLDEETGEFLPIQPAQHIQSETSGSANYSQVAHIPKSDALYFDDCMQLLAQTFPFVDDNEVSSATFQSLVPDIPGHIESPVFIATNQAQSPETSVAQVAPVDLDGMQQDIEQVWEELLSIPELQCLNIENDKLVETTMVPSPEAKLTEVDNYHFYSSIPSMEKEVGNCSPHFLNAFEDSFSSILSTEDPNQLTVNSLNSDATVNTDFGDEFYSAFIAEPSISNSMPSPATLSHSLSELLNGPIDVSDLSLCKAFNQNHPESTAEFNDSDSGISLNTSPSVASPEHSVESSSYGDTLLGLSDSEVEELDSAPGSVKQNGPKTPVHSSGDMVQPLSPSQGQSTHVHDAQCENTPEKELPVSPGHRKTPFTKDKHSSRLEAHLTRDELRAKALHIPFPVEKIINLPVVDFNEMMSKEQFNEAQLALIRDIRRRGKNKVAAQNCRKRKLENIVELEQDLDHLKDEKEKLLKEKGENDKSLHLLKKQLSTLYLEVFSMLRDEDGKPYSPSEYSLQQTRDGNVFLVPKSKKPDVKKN

[2] = target: T1, Nuclear factor erythroid 2-related factor 2 (Homo sapiens); experiment: Activation of Nrf2 in normal human lung fibroblasts assessed as induction of HMOX protein expression by measuring HMOX positive cells level at 0.3 uM incubated for 16 to 18 hrs by immunostaining relative to control DMSO
[3] = target: T1, Nuclear factor erythroid 2-related factor 2 (Homo sapiens); experiment: Activation of Nrf2 in normal human lung fibroblasts assessed as induction of HMOX protein expression at 0.3 uM incubated for 16 to 18 hrs by immunostaining relative to control
[4] = target: T1, Nuclear factor erythroid 2-related factor 2 (Homo sapiens); experiment: Activation of Nrf2 in normal human lung fibroblasts assessed as induction of HMOX protein expression at 0.03 uM incubated for 16 to 18 hrs by immunostaining relative to control
[5] = target: T1, Nuclear factor erythroid 2-related factor 2 (Homo sapiens); experiment: Activation of Nrf2 in normal human lung fibroblasts assessed as induction of HMOX protein expression by measuring HMOX positive cells level at 0.1 uM incubated for 16 to 18 hrs by immunostaining relative to control DMSO
[6] = target: T1, Nuclear factor erythroid 2-related factor 2 (Homo sapiens); experiment: Activation of Nrf2 in normal human lung fibroblasts assessed as induction of HMOX protein expression at 30 uM incubated for 16 to 18 hrs by immunostaining relative to control
[7] = target: T1, Nuclear factor erythroid 2-related factor 2 (Homo sapiens); experiment: Activation of Nrf2 in normal human lung fibroblasts assessed as induction of HMOX protein expression by measuring HMOX positive cells level at 10 uM incubated for 16 to 18 hrs by immunostaining relative to control DMSO
[8] = target: T1, Nuclear factor erythroid 2-related factor 2 (Homo sapiens); experiment: Activation of Nrf2 in normal human lung fibroblasts assessed as induction of HMOX protein expression at 10 uM incubated for 16 to 18 hrs by immunostaining relative to control
[9] = target: T1, Nuclear factor erythroid 2-related factor 2 (Homo sapiens); experiment: Activation of Nrf2 in normal human lung fibroblasts assessed as induction of HMOX protein expression by measuring HMOX positive cells level at 0.03 uM incubated for 16 to 18 hrs by immunostaining relative to control DMSO
[10] = target: T1, Nuclear factor erythroid 2-related factor 2 (Homo sapiens); experiment: Activation of Nrf2 in normal human lung fibroblasts assessed as induction of HMOX protein expression at 0.1 uM incubated for 16 to 18 hrs by immunostaining relative to control
[11] = target: T1, Nuclear factor erythroid 2-related factor 2 (Homo sapiens); experiment: Activation of Nrf2 in normal human lung fibroblasts assessed as induction of HMOX protein expression by measuring HMOX positive cells level at 3 uM incubated for 16 to 18 hrs by immunostaining relative to control DMSO
[12] = target: T1, Nuclear factor erythroid 2-related factor 2 (Homo sapiens); experiment: Activation of Nrf2 in normal human lung fibroblasts assessed as induction of HMOX protein expression by measuring HMOX positive cells level at 30 uM incubated for 16 to 18 hrs by immunostaining relative to control DMSO
[13] = target: T1, Nuclear factor erythroid 2-related factor 2 (Homo sapiens); experiment: Activation of Nrf2 in normal human lung fibroblasts assessed as induction of HMOX protein expression at 1 uM incubated for 16 to 18 hrs by immunostaining relative to control
[14] = target: T1, Nuclear factor erythroid 2-related factor 2 (Homo sapiens); experiment: Activation of Nrf2 in normal human lung fibroblasts assessed as induction of HMOX protein expression by measuring HMOX positive cells level at 1 uM incubated for 16 to 18 hrs by immunostaining relative to control DMSO
[15] = target: T1, Nuclear factor erythroid 2-related factor 2 (Homo sapiens); experiment: Activation of Nrf2 in normal human lung fibroblasts assessed as induction of HMOX protein expression at 0.312 uM incubated for 16 to 18 hrs by immunostaining relative to control
[16] = target: T1, Nuclear factor erythroid 2-related factor 2 (Homo sapiens); experiment: Activation of Nrf2 in normal human lung fibroblasts assessed as induction of HMOX protein expression at 0.0024 uM incubated for 16 to 18 hrs by immunostaining relative to control
[17] = target: T1, Nuclear factor erythroid 2-related factor 2 (Homo sapiens); experiment: Activation of Nrf2 in normal human lung fibroblasts assessed as induction of HMOX protein expression at 0.019 uM incubated for 16 to 18 hrs by immunostaining relative to control
[18] = target: T1, Nuclear factor erythroid 2-related factor 2 (Homo sapiens); experiment: Activation of Nrf2 in normal human lung fibroblasts assessed as induction of HMOX protein expression at 0.039 uM incubated for 16 to 18 hrs by immunostaining relative to control
[19] = target: T1, Nuclear factor erythroid 2-related factor 2 (Homo sapiens); experiment: Activation of Nrf2 in normal human lung fibroblasts assessed as induction of HMOX protein expression at 0.156 uM incubated for 16 to 18 hrs by immunostaining relative to control
[20] = target: T1, Nuclear factor erythroid 2-related factor 2 (Homo sapiens); experiment: Activation of Nrf2 in normal human lung fibroblasts assessed as induction of HMOX protein expression at 0.0097 uM incubated for 16 to 18 hrs by immunostaining relative to control
[21] = target: T1, Nuclear factor erythroid 2-related factor 2 (Homo sapiens); experiment: Activation of Nrf2 in normal human lung fibroblasts assessed as induction of HMOX protein expression at 0.078 uM incubated for 16 to 18 hrs by immunostaining relative to control
[22] = target: T1, Nuclear factor erythroid 2-related factor 2 (Homo sapiens); experiment: Activation of Nrf2 in normal human lung fibroblasts assessed as induction of HMOX protein expression at 0.0048 uM incubated for 16 to 18 hrs by immunostaining relative to control

fold change (FC) [1]: 2.76
Activity [2]: 2.47%
fold change (FC) [3]: 1.14
fold change (FC) [4]: 1.04
Activity [5]: 1.21%
fold change (FC) [6]: 6.19
Activity [7]: 74.3%
fold change (FC) [8]: 4.45
Activity [9]: 1.71%
fold change (FC) [10]: 1.06
Activity [11]: 41.6%
Activity [12]: 84.6%
fold change (FC) [13]: 1.39
Activity [14]: 4.38%
SMILES: COC(=O)/C=C/C(=O)OC

fold change (FC) [15]: 16.4
fold change (FC) [16]: 1.31
fold change (FC) [17]: 5
fold change (FC) [18]: 8.48
fold change (FC) [19]: 19
fold change (FC) [20]: 2.53
fold change (FC) [21]: 12.2
fold change (FC) [22]: 1.59
SMILES: COC(=O)[C@]12CCC(C)(C)C[C@H]1[C@H]1C(=O)C=C3[C@@]4(C)C=C(C#N)C(=O)C(C)(C)[C@@H]4CC[C@@]3(C)[C@]1(C)CC2
